Data from PMC11589570, “Critical assessment of LC3/GABARAP ligands used for degrader development and ligandability of LC3/GABARAP binding pockets” (Nature Communications, 2024).
“And” between values parts separate entries of the source, which are not always exact repeats. Identical values can stand only once.

Experiments:
LC3B = LC3B (Homo sapiens, UniProt Q9GZQ8); assay: FP assay with Cy5-labelled p62 LIR tracer (protein titration and tracer displacement); type: binding; conditions: for normalized FP signal, p62 LIR tracer displacement: LC3B; for compound titration LC3B (displacement curve, FP signal): two replicate columns per compound
RPE1 cells = assay: Cell growth assay (IncuCyte confluence over 72 h); type: cell-based
Method in brief: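 Phase confluence (% area covered by cells) imaged every 2 h for 72 h after compound addition; cells in DMEM/10% FBS, seeded 24 h before treatment. Controls were 0.1% DMSO, 250 nM Torin1 and 200 ng/mL Bafilomycin (final). Each point averages three wells.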

[1] = tested on: RPE-1 GFP-LC3B-RPF-LC3∆G reporter cell line; assay: Autophagy flux assay; type: cell-based; conditions: rebuttal letter
Text: LC3/GABARAP in vitro, but no attempts are made to replicate the previously reported cellular activity of these compounds. It would be beneficial to know whether these compounds have any effect on autophagy in the authors’ hands, and therefore could act by alternative mechanisms, or whether they […]
Response: We were very concerned that the ligands used for ATTEC development might induce general toxicity in cell lines, as they are based on drugs used in oncology (such as the kinesin inhibitor 10O5) and the isoxazole scaffold often used in the development of multi-targeted kinase inhibitors. However, we have now investigated compounds 1-4 in autophagy flux assays using the RPE-1 GFP-LC3B-RPF-LC3∆G reporter cell line (single clone) as […]
reported in [PMID:37558952].
(RR_Figure 6). The authors of the first manuscript reporting these ligands [PMID: 31666698]
However, due to the potent activity of 8F20 on KIF11, which will have profound effects on cell trafficking and growth, and DCAF11 (AN1, [PMID: 38036533]), we find it unlikely that the effects on autophagy are due to LC3/GABARAP modulation. Due to the lack of target (LC3/GABARAP) binding in vitro and the […]
of this review but have excluded the data in the manuscript.
RR_figure 5: Autophagy flux measurement for 10O5 and AN2. No induction of autophagy or effects (right panels, assessed by Incucyte (Sartorius) life cell imaging) on cell growth was […]
RR_figure 6: Autophagy flux measurement for 8F20 and AN1 show changes in autophagy flux […]
It is not clear how many biological replicates have been performed. For example, the figure legends […]

[2] = log10 concentration [M] -3.82391
[3] = log10 concentration [M] -4.1549
[4] = log10 concentration [M] -4.60206
[5] = log10 concentration [M] -5.30103
[6] = log10 concentration [M] -5.69897
[7] = log10 concentration [M] -6.22185
[8] = log10 concentration [M] -6.69897
[9] = log10 concentration [M] -7.30103
[10] = log10 concentration [M] -7.79588
[11] = log10 concentration [M] -8.08092

## O=C1Nc2ccc(I)cc2C1=Cc1cc(Br)c(O)c(Br)c1 [compound 4]
LC3B; [2]
  normalized FP signal, p62 LIR tracer displacement: 84.7368
  compound titration LC3B (displacement curve, FP signal): 84.7368 and 89.4737
LC3B; [3]
  normalized FP signal, p62 LIR tracer displacement: 89.2105
  compound titration LC3B (displacement curve, FP signal): 89.4737 and 89.2105
LC3B; [4]
  normalized FP signal, p62 LIR tracer displacement: 90.7895
  compound titration LC3B (displacement curve, FP signal): 90.7895 and 93.1579
LC3B; log10 concentration [M] -5
  normalized FP signal, p62 LIR tracer displacement: 95
  compound titration LC3B (displacement curve, FP signal): 95 and 100.526
LC3B; [5]
  normalized FP signal, p62 LIR tracer displacement: 93.9474 and 101.579
  compound titration LC3B (displacement curve, FP signal): 93.9474 and 101.579
LC3B; [6]
  normalized FP signal, p62 LIR tracer displacement: 91.0526
  compound titration LC3B (displacement curve, FP signal): 91.0526
LC3B; [7]
  normalized FP signal, p62 LIR tracer displacement: 96.5789
  compound titration LC3B (displacement curve, FP signal): 96.5789 and 94.4737
LC3B; [8]
  normalized FP signal, p62 LIR tracer displacement: 94.2105 and 95.5263
  compound titration LC3B (displacement curve, FP signal): 94.2105 and 95.5263
LC3B; [9]
  normalized FP signal, p62 LIR tracer displacement: 96.3158 and 90.2632
  compound titration LC3B (displacement curve, FP signal): 96.3158 and 90.2632
LC3B; [10]
  normalized FP signal, p62 LIR tracer displacement: 96.5789
  compound titration LC3B (displacement curve, FP signal): 93.1579 and 96.5789
LC3B; [11]
  normalized FP signal, p62 LIR tracer displacement: 96.0526 and 95.2632
  compound titration LC3B (displacement curve, FP signal): 96.0526 and 95.2632
RPE1 cells; 100 nM, 0 h, listed as 10O5
  RPE1 cell growth: 16 and 14
RPE1 cells; 100 nM, 2 h, listed as 10O5
  RPE1 cell growth: 20 and 13 and 18
RPE1 cells; 100 nM, 4 h, listed as 10O5
  RPE1 cell growth: 23 and 14 and 19
RPE1 cells; 100 nM, 6 h, listed as 10O5
  RPE1 cell growth: 26 and 14 and 18
RPE1 cells; 100 nM, 8 h, listed as 10O5
  RPE1 cell growth: 27 and 16 and 19
RPE1 cells; 100 nM, 10 h, listed as 10O5
  RPE1 cell growth: 28 and 17 and 21
RPE1 cells; 500 nM, 0 h, listed as 10O5
  RPE1 cell growth: 20 and 18 and 16
RPE1 cells; 500 nM, 2 h, listed as 10O5
  RPE1 cell growth: 24 and 18
RPE1 cells; 500 nM, 4 h, listed as 10O5
  RPE1 cell growth: 27 and 19
RPE1 cells; 500 nM, 6 h, listed as 10O5
  RPE1 cell growth: 29 and 20 and 19
RPE1 cells; 500 nM, 8 h, listed as 10O5
  RPE1 cell growth: 32 and 21 and 20
RPE1 cells; 500 nM, 10 h, listed as 10O5
  RPE1 cell growth: 35 and 22
RPE1 cells; 1 uM, 0 h, listed as 10O5
  RPE1 cell growth: 15 and 13 and 19
RPE1 cells; 1 uM, 2 h, listed as 10O5
  RPE1 cell growth: 18 and 17
RPE1 cells; 1 uM, 4 h, listed as 10O5
  RPE1 cell growth: 20 and 18
RPE1 cells; 1 uM, 6 h, listed as 10O5
  RPE1 cell growth: 21 and 24 and 20
RPE1 cells; 1 uM, 8 h, listed as 10O5
  RPE1 cell growth: 21 and 25 and 22
RPE1 cells; 1 uM, 10 h, listed as 10O5
  RPE1 cell growth: 23 and 26 and 22
RPE1 cells; 1 uM, 12 h, listed as 10O5
  RPE1 cell growth: 25
RPE1 cells; 3 uM, 0 h, listed as 10O5
  RPE1 cell growth: 13 and 19 and 16
RPE1 cells; 3 uM, 2 h, listed as 10O5
  RPE1 cell growth: 17 and 19
RPE1 cells; 3 uM, 4 h, listed as 10O5
  RPE1 cell growth: 20 and 18
RPE1 cells; 3 uM, 6 h, listed as 10O5
  RPE1 cell growth: 23 and 21 and 19
RPE1 cells; 3 uM, 8 h, listed as 10O5
  RPE1 cell growth: 26 and 20 and 19
RPE1 cells; 3 uM, 10 h, listed as 10O5
  RPE1 cell growth: 27 and 24 and 21
RPE1 cells; 3 uM, 12 h, listed as 10O5
  RPE1 cell growth: 30 and 23
RPE1 cells; 5 uM, 0 h, listed as 10O5
  RPE1 cell growth: 16 and 15 and 17
RPE1 cells; 5 uM, 2 h, listed as 10O5
  RPE1 cell growth: 20 and 16 and 19
RPE1 cells; 5 uM, 4 h, listed as 10O5
  RPE1 cell growth: 21 and 17
RPE1 cells; 5 uM, 6 h, listed as 10O5
  RPE1 cell growth: 24 and 17 and 20
RPE1 cells; 5 uM, 8 h, listed as 10O5
  RPE1 cell growth: 29 and 19 and 21
RPE1 cells; 5 uM, 10 h, listed as 10O5
  RPE1 cell growth: 28 and 19 and 23
RPE1 cells; 10 uM, 0 h, listed as 10O5
  RPE1 cell growth: 16 and 21 and 17
RPE1 cells; 10 uM, 2 h, listed as 10O5
  RPE1 cell growth: 22 and 20
RPE1 cells; 10 uM, 4 h, listed as 10O5
  RPE1 cell growth: 25 and 21 and 22
RPE1 cells; 10 uM, 6 h, listed as 10O5
  RPE1 cell growth: 29 and 22
RPE1 cells; 10 uM, 8 h, listed as 10O5
  RPE1 cell growth: 30 and 26 and 23
RPE1 cells; 10 uM, 10 h, listed as 10O5
  RPE1 cell growth: 31 and 28 and 24
[1]
  autophagy induction (autophagy flux): did not induce autophagy
  effects on cell growth (Incucyte life cell imaging): No induction of autophagy or effects

## O=C1Nc2ccc(Br)cc2C1=Cc1cc(O)c(O)c(Br)c1 [compound 1]
RPE1 cells; 100 nM, 10 h, listed as AN1
  RPE1 cell growth: 30 and 17 and 26
RPE1 cells; 100 nM, 12 h, listed as AN1
  RPE1 cell growth: 33 and 18 and 27
RPE1 cells; 100 nM, 14 h, listed as AN1
  RPE1 cell growth: 37 and 19 and 27
RPE1 cells; 100 nM, 16 h, listed as AN1
  RPE1 cell growth: 37 and 22 and 30
RPE1 cells; 100 nM, 18 h, listed as AN1
  RPE1 cell growth: 41 and 22 and 30
RPE1 cells; 100 nM, 20 h, listed as AN1
  RPE1 cell growth: 42 and 22
RPE1 cells; 500 nM, 10 h, listed as AN1
  RPE1 cell growth: 40 and 23 and 25
RPE1 cells; 500 nM, 12 h, listed as AN1
  RPE1 cell growth: 43 and 24 and 26
RPE1 cells; 500 nM, 14 h, listed as AN1
  RPE1 cell growth: 44 and 25 and 28
RPE1 cells; 500 nM, 16 h, listed as AN1
  RPE1 cell growth: 47 and 29 and 30
RPE1 cells; 500 nM, 18 h, listed as AN1
  RPE1 cell growth: 49 and 29 and 32
RPE1 cells; 1 uM, 10 h, listed as AN1
  RPE1 cell growth: 23 and 42 and 25
RPE1 cells; 1 uM, 12 h, listed as AN1
  RPE1 cell growth: 25 and 45 and 28
RPE1 cells; 1 uM, 14 h, listed as AN1
  RPE1 cell growth: 26 and 48 and 29
RPE1 cells; 1 uM, 16 h, listed as AN1
  RPE1 cell growth: 29 and 49 and 32
RPE1 cells; 1 uM, 18 h, listed as AN1
  RPE1 cell growth: 30 and 50 and 34
RPE1 cells; 1 uM, 20 h, listed as AN1
  RPE1 cell growth: 32
RPE1 cells; 3 uM, 10 h, listed as AN1
  RPE1 cell growth: 43 and 32 and 29
RPE1 cells; 3 uM, 12 h, listed as AN1
  RPE1 cell growth: 45 and 37 and 31
RPE1 cells; 3 uM, 14 h, listed as AN1
  RPE1 cell growth: 48 and 37 and 32
RPE1 cells; 3 uM, 16 h, listed as AN1
  RPE1 cell growth: 50 and 39 and 35
RPE1 cells; 3 uM, 18 h, listed as AN1
  RPE1 cell growth: 53 and 40 and 36
RPE1 cells; 3 uM, 20 h, listed as AN1
  RPE1 cell growth: 52 and 41 and 37
RPE1 cells; 5 uM, 10 h, listed as AN1
  RPE1 cell growth: 47 and 35
RPE1 cells; 5 uM, 12 h, listed as AN1
  RPE1 cell growth: 49 and 38
RPE1 cells; 5 uM, 14 h, listed as AN1
  RPE1 cell growth: 53 and 38 and 42
RPE1 cells; 5 uM, 16 h, listed as AN1
  RPE1 cell growth: 55 and 41 and 44
RPE1 cells; 5 uM, 18 h, listed as AN1
  RPE1 cell growth: 57 and 42 and 46
RPE1 cells; 5 uM, 20 h, listed as AN1
  RPE1 cell growth: 56 and 45 and 49
RPE1 cells; 10 uM, 10 h, listed as AN1
  RPE1 cell growth: 47 and 35 and 32
RPE1 cells; 10 uM, 12 h, listed as AN1
  RPE1 cell growth: 51 and 37 and 33
RPE1 cells; 10 uM, 14 h, listed as AN1
  RPE1 cell growth: 53 and 39 and 36
RPE1 cells; 10 uM, 16 h, listed as AN1
  RPE1 cell growth: 55 and 43 and 35
RPE1 cells; 10 uM, 18 h, listed as AN1
  RPE1 cell growth: 56 and 38 and 37
RPE1 cells; 10 uM, 20 h, listed as AN1
  RPE1 cell growth: 54 and 41 and 38
RPE1 cells; RPE1, 72 h
  effect on cell growth (confluence): high dosage effects
[1]
  autophagy induction (autophagy flux): significant autophagy activation
  effects on cell growth (Incucyte life cell imaging): profound effects on cell growth
